# From patent US20100227307A1, “ERGOTHIONEINE AND/OR ITS DERIVATIVES AS A CELL PRESERVATIVE” (priority 2007, published 2010)
# What was measured:
# mouse liver = details: cited from earlier work
# liver tissue of rats = details: exogenous L-ergothioneine; cited from earlier work
# [1] = system: Stallion named IKE's semen (sperm cells); assay: Post-thaw motility of frozen stallion semen in five extenders (Sperm Vision analysis); type: cell-based; details: ergothioneine added to traditional semen extender compositions
# Procedure: The resulting sperm pellet was then split 5 ways and resuspended with the five different extenders tested. DMSO and EQUIPRO® cryoguards were frozen right away. […] Semen was frozen using the ice cube freezer. Semen straws were thawed at 37° C. for 1 minute. Semen was diluted at one to ten in EQUIPRO® concentrate to analyze using sperm vision. All five extenders were measured for motility (total motility and forward progressive motility, FPM) using Sperm Vision® software, a high-resolution, rapid scan digital camera on a plain glass slide. Measurements were taken at 0 min post thaw, 30 min and 60 min post thaw.
compound,measurement,setting,value
"C[N+](C)(C)[C@@H](Cc1c[nH]c(=S)[nH]1)C(=O)[O-] [ergothioneine, L-ergothioneine]",LPO formation,mouse liver,inhibited LPO formation
same,decomposition of existing LPO,mouse liver,enhanced the decomposition of existing LPO
same,lipid peroxidation by toxic compounds,liver tissue of rats,prevent lipid peroxidation
same,sperm cell survival,[1],significant improvement
same,surviving cell motility,[1],significant improvement
